Assay in all cases: relative viability (nuclei count vs DMSO), 5 days (fraction); higher = more cells survive
Compound in the test “Wnt-C59 + Pemetrexed”: CC1=NC=CC(=C1)C2=CC=C(C=C2)CC(=O)NC3=CC=C(C=C3)C4=CN=CC=C4 [Wnt-C59] + Nc1nc2[nH]cc(CCc3ccc(C(=O)N[C@@H](CCC(=O)O)C(=O)O)cc3)c2c(=O)[nH]1 [Pemetrexed] (partner 0.2 µM)
A digest of the protocol: (§1)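 Cells from lung cancer lines were seeded into 1536-well plates and, one day later, dosed by pin tool. Treatments were either a single drug or a fixed dose of an anchor drug with five library-drug doses (not always all listed) in √10 steps. After 5 days, nuclei were stained in a one-step fixation (final 0.05% Triton X-100, 1% formaldehyde, 1 ug/ml Hoechst) and counted on 4× images, and relative viability is the treated-to-vehicle nuclei ratio, as the median of duplicate plates.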

Compound in the test “Wnt-C59 + Dasatinib”: CC1=NC=CC(=C1)C2=CC=C(C=C2)CC(=O)NC3=CC=C(C=C3)C4=CN=CC=C4 [Wnt-C59] + Cc1nc(Nc2ncc(C(=O)Nc3c(C)cccc3Cl)s2)cc(N2CCN(CCO)CC2)n1 [Dasatinib] (partner 0.075 µM)
Put shortly: as §1

Compound in the test “Wnt-C59 + Vorinostat”: CC1=NC=CC(=C1)C2=CC=C(C=C2)CC(=O)NC3=CC=C(C=C3)C4=CN=CC=C4 [Wnt-C59] + O=C(CCCCCCC(=O)Nc1ccccc1)NO [Vorinostat] (partner 1 µM)
Put shortly:
as §1

Compound in the test “Wnt-C59 + Phenformin”: CC1=NC=CC(=C1)C2=CC=C(C=C2)CC(=O)NC3=CC=C(C=C3)C4=CN=CC=C4 [Wnt-C59] + N=C(N)NC(=N)NCCc1ccccc1 [Phenformin] (partner 250 µM)
A digest of the protocol: as §1

In the case of UMC-11, the relative viability worked out at 0.756 with Wnt-C59 + Pemetrexed (first compound 0.001 µM); 0.821 with Wnt-C59 + Pemetrexed (first compound 0.01 µM); 0.874 in the test with Wnt-C59 + Pemetrexed (first compound 0.03162 µM); 0.76 in the test with Wnt-C59 + Pemetrexed (first compound 0.1 µM); 0.444 with Wnt-C59 + Dasatinib (first compound 0.001 µM); 0.417 in the test with Wnt-C59 + Dasatinib (first compound 0.01 µM). Further, the relative viability with Wnt-C59 + Dasatinib (first compound 0.03162 µM) was determined as 0.525; in the test with Wnt-C59 + Dasatinib (first compound 0.1 µM), 0.468; with Wnt-C59 + Vorinostat (first compound 0.001 µM), 0.445; with Wnt-C59 + Vorinostat (first compound 0.01 µM), 0.418; in the test with Wnt-C59 + Vorinostat (first compound 0.03162 µM), 0.339; with Wnt-C59 + Vorinostat (first compound 0.1 µM), 0.422. The relative viability with Wnt-C59 + Phenformin (first compound 0.001 µM) was 0.305; in the test with Wnt-C59 + Phenformin (first compound 0.01 µM) it was 0.282; in the test with Wnt-C59 + Phenformin (first compound 0.03162 µM), 0.328; in the test with Wnt-C59 + Phenformin (first compound 0.1 µM) it was 0.32.

The values above are taken from the supplement of paper PMC10307832.
